# Reference: patent publication US20160046592A1, “PHARMACEUTICAL COMPOSITION FOR THE TREATMENT OF DIABETES” (Ajinomoto Co., Inc., priority 2013, published 2016)
# Tested on: Rat skeletal muscle-derived L6 myoblasts (differentiated into myotube cells)
# Assay: Evaluation of glycogen accumulation in L6
# Type: cell-based
# Settings: [14C] glycogen from D-[U-C14] glucose, 3 hours incubation, 100% = compound of Example 1 of WO/2011/058154 at 30 μM
# Description: The glycogen accumulation activity was evaluated in skeletal muscle cells according to the published article (ANALYTICAL BIOCHEMISTRY, Vol. 261: 159-163, 1998) by the following method. Rat skeletal muscle-derived L6 myoblasts (ATCC) were seeded in a 96-well collagen-coated plate (IWAKI, 4860-010) by using a growth medium (10% FBS-containing α-MEM medium (NACALAI TESQUE, INC., 21444-05)) under a condition of 4×10^4 cells/100 μL/well. After culturing under conditions of 37° C. and 5% CO2 overnight, the medium was replaced with a differentiation medium (2% FBS-containing α-MEM medium), followed by culturing for 3 days to differentiate the myoblasts into myotube cells. On the day of evaluation, the medium was replaced with a glucose-deprived medium (0.1% BSA-containing DMEM medium (Gibco, 11966)). After culturing for 4 hours, the medium was replaced with assay media (0.1% BSA-containing DMEM medium (NACALAI TESQUE, INC., 08456-65)) containing 0.6% DMSO and one of the test compounds at a concentration which was twice the final evaluation concentration at 15 μL/well. Further, an assay medium containing D-[U—C14] glucose (PerkinElmer Inc., NEC042V) at […] was added at 15 μL/well to adjust the final volume to 30 μL/well. Then, the cells were incubated under conditions of 37° C. and 5% CO2 for 3 hours. After the incubation, each medium was removed by suction with an aspirator, and the wells were rinsed with PBS at 200 μL/well twice. Then, 1 N NaOH was added at 50 μL/well, and the cells were lysed by incubation at 60° C. for 10 minutes. After the temperature of the lysed cells was returned to room temperature, each whole cell lysate and […] glycogen (Sigma-Aldrich, G8876) at 5 μL/well were added to a Multiscreen HTS (Millipore, MSFCN6B) to which 100% ethanol was added in advance at 100 μL/well, followed by incubation at 4° C. for 20 minutes. After the incubation, aspiration was conducted by using Multiscreen HTS Vacuum Manifold (Millipore), followed by rinse with 66% ethanol at 200 μL/well twice. After ethanol remaining on the filter was completely removed by drying, MicroScint40 (PerkinElmer Inc.) was added at 50 μL/well, the amount of [14C] glycogen was measured with TopCountNXT (PerkinElmer Inc.). The activity of each test compound was calculated by the following method. Specifically, the relative activity (%) was calculated as 100×(B−A)/(C−A), where A represents a value (cpm) measured for a well not containing the compound but containing only DMSO, B represents a value measured for a well containing the compound and DMSO, and C represents a value measured for a well containing the compound of Example 1 of WO/2011/058154 at a final concentration of 30 μM. EC50 representing the concentration of the compound at which an increase in activity by 50% was caused was calculated using XLfit (idbs).
compound,measurement,value
"COC[C@@H]1CC[C@@H](C(=O)O)N1C(=O)c1cccc(COc2ccc(-c3cc(F)c(F)cc3SC)cc2)c1 [Example 62, (2S,5S)-1-[3-[[4-(4,5-Difluoro-2-methylsulfanyl-phenyl)phenoxy]methyl]benzoyl]-5-(methoxymethyl)pyrrolidine-2-carboxylic Acid]",EC50,< 300 nM
